Results from ChEMBL document CHEMBL5143645, “Synthesis of harmine-nitric oxide donor derivatives as potential antitumor agents” (Bioorg Med Chem Lett, 2022).
pIC50: −log10 of the molar value. Active and inactive are the calls of the source. The rule behind the calls is not given here.

What was measured:
MCF7 = assay: Antiproliferative activity against human MCF7 cells assessed as reduction in cell viability incubated for 72 hrs by CCK-8 assay; assay type: functional, cell-based; conditions: MCF7, 72 h
HCT-116 = assay: Antiproliferative activity against human HCT-116 cells assessed as reduction in cell viability incubated for 72 hrs by CCK-8 assay; assay type: functional, cell-based; conditions: HCT-116, 72 h
HepG2 [1] = assay: Antiproliferative activity against human HepG2 cells assessed as reduction in cell viability incubated for 72 hrs by CCK-8 assay; assay type: functional, cell-based; conditions: HepG2, 72 h
BGC-823 = assay: Antiproliferative activity against human BGC-823 cells assessed as reduction in cell viability incubated for 72 hrs by CCK-8 assay; assay type: functional, cell-based; conditions: BGC-823, 72 h
A549 = assay: Antiproliferative activity against human A549 cells assessed as reduction in cell viability incubated for 72 hrs by CCK-8 assay; assay type: functional, cell-based; conditions: A549, 72 h
[2] = Cytotoxicity against human L02 cells assessed as reduction in cell viability incubated for 72 hrs by CCK-8 assay; assay type: toxicity, cell-based
HepG2 [3] = assay: Induction of apoptosis in human HepG2 cells assessed as early apoptotic cells at 1.5 uM incubated for 24 hrs by PI and annexin V-FITC staining based flow cytometry (reference value: 2.68%); assay type: functional
HepG2 [4] = assay: Induction of cell cycle arrest in human HepG2 cells assessed as accumulation of cells at S phase at 15 uM incubated for 24 hrs by PI staining based flow cytometry analysis (reference value: 42.03%); assay type: functional
HepG2 [5] = assay: Induction of apoptosis in human HepG2 cells assessed as viable cells at 1.5 uM incubated for 24 hrs by PI and annexin V-FITC staining based flow cytometry (reference value: 93.97%); assay type: functional; conditions: read-out: Activity
HepG2 [6] = assay: Induction of apoptosis in human HepG2 cells assessed as viable cells at 7.5 uM incubated for 24 hrs by PI and annexin V-FITC staining based flow cytometry (reference value: 93.97%); assay type: functional; conditions: read-out: Activity
HepG2 [7] = assay: Induction of NO release in human HepG2 cells assessed as increase in mean fluorescence intensity at 1 uM incubated for 72 hrs by DAF-FM DA dye based fluorescence microscopic analysis; assay type: functional, cell-based
HepG2 [8] = assay: Induction of cell cycle arrest in human HepG2 cells assessed as accumulation of cells at S phase at 1.5 uM incubated for 24 hrs by PI staining based flow cytometry analysis (reference value: 42.03%); assay type: functional
HepG2 [9] = assay: Induction of apoptosis in human HepG2 cells assessed as late apoptotic cells at 1.5 uM incubated for 24 hrs by PI and annexin V-FITC staining based flow cytometry (reference value: 0.36%); assay type: functional
HepG2 [10] = assay: Induction of apoptosis in human HepG2 cells assessed as necrotic cells at 15 uM incubated for 24 hrs by PI and annexin V-FITC staining based flow cytometry (reference value: 0.36%); assay type: functional
[11] = Acute toxicity in ICR mouse assessed as abnormality in eating at less than 100 mg/kg, ip measured over 14 days; assay type: organism-based; conditions: in vivo, 336 h, time 14 day
HepG2 [12] = assay: Induction of NO release in human HepG2 cells assessed as increase in mean fluorescence intensity at 1.5 uM incubated for 72 hrs by DAF-FM DA dye based fluorescence microscopic analysis; assay type: functional, cell-based
[13] = Apparent permeability across apical to basolateral side in human Caco-2 cells at 2 uM measured after 2 hrs by […] dye based microplate reader analysis; assay type: ADME, cell-based
HepG2 [14] = assay: Induction of NO release in human HepG2 cells assessed as increase in mean fluorescence intensity at 1 to 9 uM incubated for 72 hrs by DAF-FM DA dye based fluorescence microscopic analysis; assay type: functional, cell-based; conditions: dose 1-9 µM
[15] = Acute toxicity in ICR mouse assessed as change in activity at less than 100 mg/kg, ip measured over 14 days; assay type: organism-based; conditions: in vivo, 336 h, time 14 day
[16] = Acute toxicity in ICR mouse assessed as death time at 50 mg/kg, ip measured over 14 days; assay type: organism-based; conditions: in vivo, 336 h, time 14 day
HepG2 [17] = assay: Induction of apoptosis in human HepG2 cells assessed as early apoptotic cells at 15 uM incubated for 24 hrs by PI and annexin V-FITC staining based flow cytometry (reference value: 2.68%); assay type: functional
HepG2 [18] = assay: Induction of cell cycle arrest in human HepG2 cells assessed as accumulation of cells at G2/M phase at 15 uM incubated for 24 hrs by PI staining based flow cytometry analysis (reference value: 14.58%); assay type: functional
[19] = Stability in Sprague-Dawley rat plasma assessed as parent compound remaining at 40 uM measured up to 36 hrs by HPLC analysis; assay type: ADME, cell-free
HepG2 [20] = assay: Induction of cell cycle arrest in human HepG2 cells assessed as accumulation of cells at S phase at 7.5 uM incubated for 24 hrs by PI staining based flow cytometry analysis (reference value: 42.03%); assay type: functional
HepG2 [21] = assay: Induction of apoptosis in human HepG2 cells assessed as late apoptotic cells at 7.5 uM incubated for 24 hrs by PI and annexin V-FITC staining based flow cytometry (reference value: 0.36%); assay type: functional
HepG2 [22] = assay: Induction of apoptosis in human HepG2 cells assessed as viable cells at 15 uM incubated for 24 hrs by PI and annexin V-FITC staining based flow cytometry (reference value: 93.97%); assay type: functional; conditions: read-out: Activity
HepG2 [23] = assay: Induction of apoptosis in human HepG2 cells assessed as necrotic cells at 7.5 uM incubated for 24 hrs by PI and annexin V-FITC staining based flow cytometry (reference value: 0.36%); assay type: functional
[24] = Acute toxicity in ICR mouse assessed as change in body weight at less than 100 mg/kg, ip measured over 14 days; assay type: organism-based; conditions: in vivo, 336 h, time 14 day
HepG2 [25] = assay: Induction of apoptosis in human HepG2 cells assessed as early apoptotic cells at 7.5 uM incubated for 24 hrs by PI and annexin V-FITC staining based flow cytometry (reference value: 2.68%); assay type: functional
HepG2 [26] = assay: Induction of cell cycle arrest in human HepG2 cells assessed as accumulation of cells at G1 phase at 1.5 uM incubated for 24 hrs by PI staining based flow cytometry analysis (reference value: 42.39%); assay type: functional
[27] = Stability of the compound in PBS at pH 7.4 assessed as parent compound remaining at 40 uM measured up to 36 hrs by HPLC analysis; assay type: physicochemical; conditions: buffer, pH 7.4, 36 h
[28] = Apparent permeability across basolateral to apical side in human Caco-2 cells at 2 uM measured after 2 hrs by […] dye based microplate reader analysis; assay type: ADME, cell-based
HepG2 [29] = assay: Induction of cell cycle arrest in human HepG2 cells assessed as accumulation of cells at G2/M phase at 1.5 uM incubated for 24 hrs by PI staining based flow cytometry analysis (reference value: 14.58%); assay type: functional
[30] = Acute toxicity in ICR mouse assessed as abnormality in drinking at less than 100 mg/kg, ip measured over 14 days; assay type: organism-based; conditions: in vivo, 336 h, time 14 day
[31] = Acute toxicity in ICR mouse assessed as death time at 10 mg/kg, ip measured over 14 days; assay type: organism-based; conditions: in vivo, 336 h, time 14 day
HepG2 [32] = assay: Induction of cell cycle arrest in human HepG2 cells assessed as accumulation of cells at G1 phase at 15 uM incubated for 24 hrs by PI staining based flow cytometry analysis (reference value: 42.39%); assay type: functional
[33] = Acute toxicity in ip dosed ICR mouse assessed as maximum tolerated dose measured over 14 days; assay type: organism-based; conditions: in vivo, time 14 day
HepG2 [34] = assay: Induction of cell cycle arrest in human HepG2 cells assessed as accumulation of cells at G2/M phase at 7.5 uM incubated for 24 hrs by PI staining based flow cytometry analysis (reference value: 14.58%); assay type: functional
HepG2 [35] = assay: Induction of apoptosis in human HepG2 cells assessed as late apoptotic cells at 15 uM incubated for 24 hrs by PI and annexin V-FITC staining based flow cytometry (reference value: 0.36%); assay type: functional
HepG2 [36] = assay: Induction of cell cycle arrest in human HepG2 cells assessed as accumulation of cells at G1 phase at 7.5 uM incubated for 24 hrs by PI staining based flow cytometry analysis (reference value: 42.39%); assay type: functional
HepG2 [37] = assay: Induction of apoptosis in human HepG2 cells assessed as necrotic cells at 1.5 uM incubated for 24 hrs by PI and annexin V-FITC staining based flow cytometry (reference value: 0.36%); assay type: functional

COc1cccc2c1C(=O)c1c(O)c3c(c(O)c1C2=O)C[C@@](O)(C(=O)CO)C[C@@H]3O[C@H]1C[C@H](N)[C@H](O)[C@H](C)O1 [DOXORUBICIN]
pIC50 (MCF7): 6.42
pIC50 (HCT-116): 6.06
pIC50 (HepG2 [1]): 6.37
pIC50 (BGC-823): 6.18
pIC50 (A549): 5.98

O=S(=O)(c1ccccc1)c1c(OCCCCO)no[n+]1[O-]
pIC50 (MCF7): 5.31
pIC50 (HCT-116): 5.21
pIC50 (HepG2 [1]): 5.30
pIC50 (BGC-823): 5.50
IC50 at 72 h [2]: 17.9 µM
pIC50 (A549): 5.46

Br.Cc1c2c(cc[n+]1Cc1ccccc1)c1ccc(OCC(=O)OCCCCOc3no[n+]([O-])c3S(=O)(=O)c3ccccc3)cc1n2CCCc1ccccc1
Activity (HepG2 [3]): 10.11%
pIC50 (MCF7): 5.55
Activity (HepG2 [4]): 36.56%
viability at 1.5 µM (HepG2 [5]): 81.2%
viability at 7.5 µM (HepG2 [6]): 77.2%
Activity (HepG2 [7]): Active
Activity (HepG2 [8]): 40.75%
Activity (HepG2 [9]): 4.28%
Activity (HepG2 [10]): 6.08%
pIC50 (HCT-116): 5.11
pIC50 (HepG2 [1]): 5.75
Activity [11]: Non-Toxic
Activity (HepG2 [12]): Active
Papp A→B at 2 h, 2 µM [13]: < 0.05 ×10⁻⁶ cm/s
Activity (HepG2 [14]): Active
Activity [15]: Non-Toxic
Activity [16]: Non-Toxic
Activity (HepG2 [17]): 20.86%
Activity (HepG2 [18]): 30.22%
Stability [19]: Stable
Activity (HepG2 [20]): 46.2%
Activity (HepG2 [21]): 5.56%
pIC50 (BGC-823): 5.06
viability at 15 µM (HepG2 [22]): 58.3%
IC50 at 72 h [2]: 10 µM
Activity (HepG2 [23]): 4.45%
Activity [24]: Non-Toxic
Activity (HepG2 [25]): 12.78%
Activity (HepG2 [26]): 40.68%
Stability [27]: Stable
Papp B→A at 2 h, 2 µM [28]: < 0.05 ×10⁻⁶ cm/s
Activity (HepG2 [29]): 18.57%
Activity [30]: Non-Toxic
Activity [31]: Non-Toxic
Activity (HepG2 [32]): 33.22%
MTD at 336 h [33]: 100 mg/kg
Activity (HepG2 [34]): 20.03%
Activity (HepG2 [35]): 14.73%
Activity (HepG2 [36]): 33.77%
Activity (HepG2 [37]): 4.44%
pIC50 (A549): 5.46

O=S(=O)(c1ccccc1)c1c(OCCCO)no[n+]1[O-]
pIC50 (MCF7): 5.13
pIC50 (HCT-116): 5.04
pIC50 (HepG2 [1]): 5.18
pIC50 (BGC-823): 4.93
IC50 at 72 h [2]: 21.7 µM
pIC50 (A549): 5.10

Cc1c2c(cc[n+]1Cc1ccccc1)c1ccc(OCC(=O)O)cc1n2CCCc1ccccc1
pIC50 (MCF7): 4.58
pIC50 (HCT-116): 4.40
pIC50 (HepG2 [1]): 3.95
pIC50 (BGC-823): 4.43
IC50 at 72 h [2]: 90.3 µM
pIC50 (A549): 4.28

COc1ccc2c(c1)[nH]c1c(C)nccc12 [HARMINE]
pIC50 (MCF7): 4.82
pIC50 (HCT-116): 5.16
pIC50 (HepG2 [1]): 4.77
pIC50 (BGC-823): 4.81
IC50 at 72 h [2]: 25.1 µM
Activity [31]: Non-Toxic
pIC50 (A549): 5.28
